Results reported in patent publication US20230364111A1 (priority 2020, published 2023).
Entries after “also recorded” stand apart in the source; their conditions may differ. Read-outs that look alike come from different tables or passages of the source.

Legend:
SARS-CoV-2 [1] = assay: Time of addition assay, SARS-CoV-2 viral RNA; assay type: cell-based; settings: 15 μM RDV, 15 μM CLQ, 10 μM Oxy210, 10 μM Oxy133
SARS-CoV-2 [2] = assay: SARS-CoV-2-induced cytopathic effect (CPE) in VeroE6/TMPRSS2 cells; assay type: cell-based; settings: for virus-induced CPE: 48 h post-inoculation, 10 μM RDV, 30 μM cholesterol, 30 μM 7-KC, 10 μM Oxy133, 10 μM Oxy210, MOI 0.001; for SARS-CoV-2-induced cytopathic effect (CPE): remdesivir 20 uM, 7-ketocholesterol 40 uM, 27-hydroxycholesterol 20 uM
VeroE6/TMPRSS2 cells = settings: MTT assay, VeroE6/TMPRSS2 cells; for CC50: 24 h
SARS-CoV-2 [3] = assay type: cell-based
SARS-CoV-2 Wk-521 strain = assay: SARS-CoV-2 infection assay, viral RNA in culture supernatant (VeroE6/TMPRSS2 cells); assay type: cell-based; settings: for viral RNA in the culture supernatant / IC50 / IC90 / production of viral RNA with signaling pathway inhibitors: 24 h post-inoculation; for viral RNA in the culture supernatant: natural oxysterols up to 30 μM, semi-synthetic up to 15 μM; for IC50 / IC90: SARS-CoV-2 viral RNA in culture supernatant, VeroE6/TMPRSS2 cells; for IC50: read-out: IC50; for IC90: read-out: IC90; for anti-SARS-CoV-2 activity: cell-based assay, VeroE6/TMPRSS2; for SARS-CoV-2 propagation in cultured cells: statement in words; for production of viral RNA with signaling pathway inhibitors: 10 μM
[4] = Severe acute respiratory syndrome coronavirus 2, VeroE6/TMPRSS2, 24 h
[5] = Severe acute respiratory syndrome coronavirus 2

Row | SMILES | CC50 (VeroE6/TMPRSS2 cells) [µM] | viral RNA in the culture supernatant (SARS-CoV-2 Wk-521 strain) | IC90 (SARS-CoV-2 Wk-521 strain; [4]) [µM] | IC50 (SARS-CoV-2 Wk-521 strain; [5]) [µM] | anti-SARS-CoV-2 activity (SARS-CoV-2 Wk-521 strain) | SARS-CoV-2 propagation in cultured cells (SARS-CoV-2 Wk-521 strain) | further results
1 | CCCCCC[C@](C)(O)[C@H]1CC[C@H]2[C@@H]3C[C@H](O)[C@H]4C[C@@H](O)CC[C@]4(C)[C@H]3CC[C@@]21C [Oxy133, (3S,5S,6S,8R,9S,10R,13S,14S,17S)-17-((S)-2-hydroxyoctan-2-yl)-10,13-dimethyl hexadecahydro-1H-cyclopentalalphenanthrene-3,6-diol] | > 15 | did not show antiviral activity up to 15 μM | – | – | – | – | viral RNA, compound present during the whole life cycle (SARS-CoV-2 [1]; 24 h): but not the negative control, Oxy133, clearly reduced viral RNA levels; viral RNA, compound present post-entry (SARS-CoV-2 [1]; added 2 h post-inoculation for 21 h): but not the negative control, Oxy133, clearly reduced viral RNA levels; virus-induced CPE (SARS-CoV-2 [2]): blocked when treated with Oxy210 but not Oxy133; SARS-CoV-2 propagation / spread of infection (viral N protein, immunofluorescence) (SARS-CoV-2 [3]): blocked when treated with Oxy210 but not Oxy133; IC50 (SARS-CoV-2 Wk-521 strain): > 15 µM; IC90 (SARS-CoV-2 Wk-521 strain): > 15 µM
2 | C[C@@H](CO)CCC[C@@H](C)[C@H]1CC[C@H]2[C@@H]3CC=C4C[C@@H](O)CC[C@]4(C)[C@H]3CC[C@]12C [Oxy 27-OHC, 27-hydroxycholesterol, reference compound] | > 30 | – | > 30 | 3.5 | modest anti-SARS-CoV-2 activities | substantially inhibited SARS-CoV-2 propagation | SARS-CoV-2-induced cytopathic effect (CPE) (SARS-CoV-2 [2]; 48 h, VeroE6/TMPRSS2): inhibited SARS-CoV-2-induced cytopathic effect
3 | CC(C)CC[C@H](O)[C@@H](C)[C@H]1CC[C@H]2[C@@H]3CC=C4C[C@@H](O)CC[C@]4(C)[C@H]3CC[C@]12C [22(S)-OHC, 22(S)-hydroxycholesterol, reference compound] | > 30 | did not show apparent reductions in viral RNA | > 30 | > 30 | – | – | –
4 | CC(C)[C@@H](O)CC[C@@H](C)[C@H]1CC[C@H]2[C@@H]3CC=C4C[C@@H](O)CC[C@]4(C)[C@H]3CC[C@]12C [24(S)-OHC, 24(S)-hydroxycholesterol, reference compound] | > 30 | – | > 30 | 1.3 | modest anti-SARS-CoV-2 activities | substantially inhibited SARS-CoV-2 propagation | –
5 | CC(C)CC[C@@H](O)[C@@H](C)[C@H]1CC[C@H]2[C@@H]3CC=C4C[C@@H](O)CC[C@]4(C)[C@H]3CC[C@]12C [22(R)-OHC, 22(R)-hydroxycholesterol, reference compound] | > 30 | – | > 30 | 13.2 | modest anti-SARS-CoV-2 activities | substantially inhibited SARS-CoV-2 propagation | –
6 | CC(C)CCC[C@@H](C)[C@H]1CC[C@H]2[C@@H]3CC=C4C[C@@H](O)CC[C@]4(C)[C@H]3CC[C@]12C [Cholesterol, reference compound] | > 30 | did not show apparent reductions in viral RNA | > 30 | > 30 | – | – | virus-induced CPE (SARS-CoV-2 [2]): but not cholesterol, reduced the SARS-CoV-2-induced CPE
7 | C[C@]12CC[C@H](O)C[C@@H]1CC[C@@H]1[C@@H]2CC[C@@]2(C)[C@H]1CC[C@@H]2[C@](C)(O)CCc1ccc(F)cc1 [Oxy186, (3S,5S,8R,9S,10S,13S,14S,17S)-17-((R)-4-(4-fluorophenyl)-2-hydroxybutan-2-yl)-10,13-dimethylhexadecahydro-1H-cyclopenta[a]phenanthren-3-ol] | > 15 | reduced viral RNA level in a dose-dependent manner | > 15 | 7.4 | – | – | SARS-CoV-2-induced cytopathic effect (SARS-CoV-2 [2]; oxy8 7.5 uM, oxy16 20 uM, oxy186 20 uM, oxy210 10 uM, 48 h, VeroE6/TMPRSS2): protected cells from cytopathic effect; cytotoxicity / cell viability (VeroE6/TMPRSS2 cells): No significant cytotoxicity; maximum reduction in viral RNA as compared to control (SARS-CoV-2 Wk-521 strain; at 12 μM): 83%
8 | NC(=O)c1ccc(-c2nc(-c3ccc4c(c3)OCO4)c(-c3ccccn3)[nH]2)cc1 [SB431542, reference compound] | – | – | – | – | – | – | production of viral RNA with signaling pathway inhibitors (SARS-CoV-2 Wk-521 strain): did not significantly inhibit the production of viral RNA; also recorded: lack of antiviral activity
9 | CC(C)CCC[C@@H](C)[C@H]1CC[C@H]2[C@@H]3CC=C4[C@@H](O)[C@@H](O)CC[C@]4(C)[C@H]3CC[C@]12C [Oxy 4-beta-OHC, 4beta-hydroxysterol, reference compound] | > 30 | did not show apparent reductions in viral RNA | – | – | – | – | IC50 (SARS-CoV-2 Wk-521 strain): > 30 µM; IC90 (SARS-CoV-2 Wk-521 strain): > 30 µM
10 | CCN(CC)CCCC(C)Nc1ccnc2cc(Cl)ccc12 (stereo not shown) [CLQ, chloroquine, reference compound] | – | – | – | – | – | – | viral RNA, compound present at entry (SARS-CoV-2 [1]; 1 h inoculation plus 2 h): showed the most inhibitory effect
11 | CC(C)CCC[C@@H](C)[C@H]1CC[C@H]2[C@@H]3C(=O)C=C4C[C@@H](O)CC[C@]4(C)[C@H]3CC[C@]12C [Oxy 7-KC, 7-ketocholesterol, reference compound] | > 30 | – | > 30 | 14.5 | modest anti-SARS-CoV-2 activities | substantially inhibited SARS-CoV-2 propagation | virus-induced CPE (SARS-CoV-2 [2]): reduced the SARS-CoV-2-induced CPE; SARS-CoV-2-induced cytopathic effect (CPE) (SARS-CoV-2 [2]; 48 h, VeroE6/TMPRSS2): inhibited SARS-CoV-2-induced cytopathic effect; SARS-CoV-2 propagation / spread of infection (viral N protein, immunofluorescence) (SARS-CoV-2 [3]): reduced
12 | CS(=O)(=O)c1ccc(C(=O)Nc2ccc(Cl)c(-c3ccccn3)c2)c(Cl)c1 [GDC0449, reference compound] | – | – | – | – | – | – | production of viral RNA with signaling pathway inhibitors (SARS-CoV-2 Wk-521 strain): did not decrease the viral RNA levels; also recorded: lack of antiviral activity
